In patent publication US20180044329A1, “3-SUBSTITUTED-1,2,4-OXADIAZOLE AND THIADIAZOLE COMPOUNDS AS IMMUNOMODULATORS” (AURIGENE DISCOVERY TECHNOLOGIES LIMITED, priority 2015, published 2018):

What follows are molecules tested on Recombinant mouse PD-L1 (assay: Rescue of mouse splenocyte proliferation in the presence of recombinant PD-L1 (CFSE proliferation assay)). Details: compound at 100 nM; anti-CD3/CD28 stimulated mouse splenocytes + PD-L1; 72 h; stimulated splenocyte proliferation normalised as 100%; read-out: Percent rescue of splenocyte proliferation (@100 nM).
Format: cell-based
Procedure: Rescue of Mouse Splenocyte Proliferation in the Presence of Recombinant PD-L1
Recombinant mouse PD-L1 (rm-PDL-1, cat no: 1019-B7-100; R&D Systems) were used as the source of PD-L1.
Mouse splenocytes harvested from 6-8 weeks old C57 BL6 mice; RPMI 1640 (GIBCO, Cat #11875); DMEM with high glucose (GIBCO, Cat #D6429); Fetal Bovine Serum [Hyclone, Cat #SH30071.03]; Penicillin (10000 unit/mL)-Streptomycin (10,000 μg/mL) Liquid (GIBCO, Cat #15140-122); MEM Sodium Pyruvate solution 100 mM (100×), Liquid (GIBCO, Cat #11360); Nonessential amino acid (GIBCO, Cat #11140); L-Glutamine (GIBCO, Cat #25030); Anti-CD3 antibody (eBiosciences—16-0032); Anti-CD28 antibody (eBiosciences—16-0281); ACK lysis buffer (1 mL) (GIBCO, Cat #-A10492); Histopaque (density-1.083 gm/mL) (SIGMA 10831); Trypan blue solution (SIGMA-T8154); 2 mL Norm Ject Luer Lock syringe-(Sigma 2014-12); 40 μm nylon cell strainer (BD FALCON 35230); Hemacytometer (Bright line-SIGMA Z359629); FACS Buffer (PBS/0.1% BSA): Phosphate Buffered Saline (PBS) pH 7.2 (Hi-Media TS1006) with 0.1% Bovine Serum Albumin (BSA) (SIGMA A7050) and sodium azide (SIGMA 08591); 5 mM stock solution of CFSE: CFSE stock solution was prepared by diluting lyophilized CFSE with 180 μL of Dimethyl sulfoxide (DMSO C2H6SO, SIGMA-D-5879) and aliquoted in to tubes for further use. Working concentrations were titrated from 10 μM to 1 μM. (eBioscience-650850-85); 0.05% Trypsin and 0.02% EDTA (SIGMA 59417C); 96-well format ELISA plates (Corning CLS3390); BD FACS caliber (E6016); Recombinant mouse B7-H1/PDL1 Fc Chimera, (rm-PD-L1 cat no: 1019-B7-100).
Splenocytes harvested in a 50 mL falcon tube by mashing mouse spleen in a 40 μm cell strainer were further treated with 1 mL ACK lysis buffer for 5 min at room temperature. After washing with 9 mL of RPMI complete media, cells were re-suspended in 3 mL of 1× PBS in a 15 mL tube. 3 mL of Histopaque was added carefully to the bottom of the tube without disturbing overlaying splenocyte suspension. After centrifuging at 800×g for 20 min at room temperature, the opaque layer of splenocytes was collected carefully without disturbing/mixing the layers. Splenocytes were washed twice with cold 1× PBS followed by total cell counting using Trypan Blue exclusion method and used further for cell based assays.
Splenocytes were cultured in RPMI complete media (RPMI+10% fetal bovine serum+1 mM sodium pyruvate+10,000 units/mL penicillin and 10,000 μg/mL streptomycin) and maintained in a CO2 incubator with 5% CO2 at 37° C.
CFSE is a dye that passively diffuses into cells and binds to intracellular proteins. 1×10^6 cells/mL of harvested splenocytes were treated with 5 μM of CFSE in pre-warmed 1× PBS/0.1% BSA solution for 10 min at 37° C. Excess CFSE was quenched using 5 volumes of ice-cold culture media to the cells and incubated on ice for 5 min CFSE labelled splenocytes were further given three washes with ice cold complete RPMI media. CFSE labelled 1×10^5 splenocytes added to wells containing either MDA-MB231 cells (1×10^5 cells cultured in high glucose DMEM medium) or recombinant human PDL-1 (100 ng/mL) and compounds of the present invention. Splenocytes were stimulated with anti-mouse CD3 and anti-mouse CD28 antibody (1 μg/mL each) and the culture was further incubated for 72 h at 37° C. with 5% CO2. Cells were harvested and washed thrice with ice cold FACS buffer and % proliferation was analysed by flow cytometry with 488 nm excitation and 521 nm emission filters.
Percent splenocyte proliferation was analysed using cell quest FACS program and percent rescue of splenocyte proliferation by compound was estimated after deduction of % background proliferation value and normalising to % stimulated splenocyte proliferation (positive control) as 100%. […]

Point of comparison: CC(O)[C@H](NC(=O)N[C@@H](CC(N)=O)c1nc(N2CCCCC2)no1)C(=O)O (stereo partly shown) [Compound 15], activity at 0.1 µM 54%. Against it:
- O=C(O)CNC(=O)N[C@@H](CC(=O)O)c1nc(N2CCCC2)no1 [Compound 30] — lower, 7%
- CC(O)[C@H](NC(=O)N[C@@H](CC(N)=O)c1nc(-c2cccc(F)c2)no1)C(=O)O (stereo partly shown) [Compound 24] — lower, 50%
- CC(O)[C@H](NC(=O)N[C@@H](CC(N)=O)c1nc(N2CCNCC2)no1)C(=O)O (stereo partly shown) [Compound 16] — higher, 79%
- CC(O)[C@H](NC(=O)N[C@@H](CC(=O)O)c1nc(-c2cnccn2)no1)C(=O)O (stereo partly shown) [Compound 41] — higher, 73%
- C#CC[C@H](NC(=O)N[C@H](C(=O)O)C(C)O)c1nc(-c2cnccn2)no1 (stereo partly shown) [Compound 32] — higher, 92%
- CC(O)[C@H](NC(=O)N[C@@H](CC(N)=O)c1nc(-c2ccccn2)no1)C(=O)O (stereo partly shown) [Compound 20] — lower, 27%
- CC(O)[C@H](NC(=O)N[C@@H](CCC(=O)O)c1nc([C@@H]2COCCN2)no1)C(=O)O (stereo partly shown) [Compound 47] — higher, 57%
- NCCCC[C@H](NC(=O)N[C@@H](CC(N)=O)c1nc([C@H]2CCCCN2)no1)C(=O)O [Compound 34] — higher, 78%
- CC(O)[C@H](NC(=O)N[C@@H](CC(N)=O)c1nc(N2CCC[C@H](O)C2)no1)C(=O)O (stereo partly shown) [Compound 27] — lower, 6%
- CC(O)[C@H](NC(=O)N[C@@H](CC(N)=O)c1nc(-c2cc(Cl)ccn2)no1)C(=O)O (stereo partly shown) [Compound 22] — lower, 39%
- CC(O)[C@H](NC(=O)N[C@@H](CC(N)=O)c1nc(-c2ccc(-c3ccccc3)cc2)no1)C(=O)O (stereo partly shown) [Compound 40] — higher, 79%
- CC(O)[C@H](NC(=O)N[C@@H](CC(N)=O)c1nc([C@@H]2C[C@@H](O)CN2)no1)C(=O)O (stereo partly shown) [Compound 51] — lower, 44%
- Cc1ccc(-c2noc([C@H](CC(N)=O)NC(=O)N[C@H](C(=O)O)C(C)O)n2)o1 (stereo partly shown) [Compound 26] — lower, 24%
- CC(O)[C@H](NC(=O)N[C@@H](CCC(=O)O)c1nc(N2CCCC2)no1)C(=O)O (stereo partly shown) [Compound 39] — lower, 39%
- CC(O)[C@H](NC(=O)N[C@@H](CC(N)=O)c1nc([C@@H]2COCCN2)no1)C(=O)O (stereo partly shown) [Compound 43] — higher, 92%
- CC(O)[C@H](NC(=O)N[C@@H](CC(N)=O)c1nc(-c2cnccn2)no1)C(=O)O (stereo partly shown) [Compound 21] — lower, 39%
- CC(O)[C@H](NC(=O)N[C@@H](CC(N)=O)c1nc(C2(N)CCCCC2)no1)C(=O)O (stereo partly shown) [Compound 49] — lower, 16%
- COc1ccnc(-c2noc([C@H](CC(N)=O)NC(=O)N[C@H](C(=O)O)C(C)O)n2)c1 (stereo partly shown) [Compound 23] — lower, 27%
- CC(O)[C@H](NC(=O)N[C@@H](CC(N)=O)c1nc(-c2cc(F)ccc2F)no1)C(=O)O (stereo partly shown) [Compound 25] — lower, 42%
- CC(O)[C@H](NC(=O)N[C@@H](CC(N)=O)c1nc(C2(N)CCCC2)no1)C(=O)O (stereo partly shown) [Compound 48] — lower, 47%
- CC(O)[C@H](NC(=O)N[C@@H](CC(N)=O)c1nc(C2CCCCC2)no1)C(=O)O (stereo partly shown) [Compound 46] — lower, 52%
- CC(O)[C@H](NC(=O)N[C@@H](CC(N)=O)c1nc([C@@H]2CCCCN2)no1)C(=O)O (stereo partly shown) [Compound 44] — higher, 84%
- CC(O)[C@H](NC(=O)N[C@@H](Cc1cn(-c2ccccc2C(=O)O)nn1)c1nc(-c2cnccn2)no1)C(=O)O (stereo partly shown) [Compound 31] — higher, 67%
- CC(O)[C@H](NC(=O)N[C@@H](CCC(=O)O)c1nc(-c2cc(F)ccc2F)no1)C(=O)O (stereo partly shown) [Compound 37] — higher, 74%
- CC(O)[C@H](NC(=O)N[C@@H](CC(=O)O)c1nc(N2CCCC2)no1)C(=O)O (stereo partly shown) [Compound 38] — lower, 27%
- C[C@H](NC(=O)N[C@@H](CCCCN)c1nc([C@@H]2CCCN2)no1)C(=O)O [Compound 52] — lower, 46%
- CC(O)[C@H](NC(=O)N[C@@H](CC(N)=O)c1nc([C@@H]2CNCCN2)no1)C(=O)O (stereo partly shown) [Compound 45] — lower, 49%
